From ChEMBL document CHEMBL1159224, “A new cytotoxic dihydroxy sterol from the soft coral Alcyonium patagonicum” (J Nat Prod, 1995) come the findings set out here.

Values after ≈ are worked out from the molar mass of the structure shown.

This experiment has as its system P388. Description: Cytotoxicity against mouse P388 cells. It is filed as functional, cell-based.

`C=C(CC[C@@H](C)[C@H]1CC[C@H]2[C@@H]3C[C@@H](O)C4=C[C@@H](O)CC[C@]4(C)[C@H]3CC[C@]12C)C(C)C` had an IC50 of 1 µg/mL (≈ 2.41 µM).
